Experimental data as given in patent publication US20260115202A1, “TOPICAL COMPOSITIONS COMPRISING AN ESTETROL COMPONENT AND USE OF SAID COMPOSITIONS FOR WOUND HEALING” (NEURALIS SA, priority 2022, published 2026).
Entries after “also recorded” stand apart in the source; their conditions may differ.

Legend:
[1] = system: normal human epidermal keratinocytes (NHEKs); experiment: Scratch wound assay, normal human epidermal keratinocytes; assay type: cell-based; settings: NHEK, 10^−7/10^−8 M range, 15% and 30% HKGS, 24 hours
Procedure: (§1) Primary human dermal fibroblasts (HDF) were isolated from abdominal skin or leg skin. Primary neonatal normal human epidermal keratinocytes (NHEK) were purchased (Lonza). Murine dermal fibroblasts (MDF), murine epidermal keratinocytes (MEK), murine peritoneal macrophages and murine bone marrow were isolated from C57/B16 (wt). NDb (Lepr+/−) or Db (Lepr−/−) mice.
Neonatal HEK were cultured in EpiLife supplemented with […] human keratinocyte growth supplements (HKGS) and 1% penicillin/streptomycin. MEK were cultured in CnT basal medium supplemented with 1% penicillin/streptomycin and 1% amphotericin B.
Cells were seeded into 24 well plates and cultured to form a confluent monolayer, and then scratched with a 1 ml pipette tip. Wells were treated with E2, E4 and/or various estrogen receptor agonists and antagonists. […] A vehicle control containing the equivalent concentration of EtOH and/or DMSO was included, in addition to an untreated negative control. All treatments were diluted to working concentrations in media supplemented with 2% charcoal-stripped FBS. […] Scratch closure was determined from multiple independent measurements per well.
The effects of E2 and E4 on keratinocyte migration where evaluated using primary normal human epidermal keratinocytes (NHEKs).

[2] = system: murine peritoneal macrophages; experiment: M1-polarised freshly isolated murine peritoneal macrophages, qPCR of M1 markers; assay type: cell-based, mouse; settings: peritoneal macrophages pre-treated at 10^−7M, M1 polarised 6 hours; for expression of M1 markers (iNOS, IL1-β, Tnf-α): versus vehicle
Procedure: Peritoneal macrophages from C57/B16 mice were isolated by peritoneal lavage. The peritoneal cavity of euthanised mice were filled with 5 ml ice cold PBS supplemented with 3% FBS. Cell-containing lavage fluid was removed using a needle and syringe and cells seeded into 12- or 6-well plates at 1×10^6 cells/ml in RPM1 growth medium supplemented with 10% charcoal-stripped FBS and 1% penicillin/streptomycin, were treated with 10^-7M E2 or E4 in serum free growth medium for 16 hours and polarised to M1-type cells using 100 ng/ml IFN-γ and 1 μg/ml LPS. Following 6- or 24-hours polarisation cells were collected for RNA isolation or flow cytometry. Following treatments, human and murine macrophages were collected in Trizol and RNA isolated using the Trizol plus RNA isolation kit (Invitrogen. Thermo Fisher) according to the manufacturer's instructions. RNA was reverse transcribed to cDNA using GoScript reverse transcriptase (Promega). Quantitative real-time PCR was carried out using 2×Takyon SYBR Green mastermix and a CFX Connect thermocycler. Primers for ERα and ERβ were used to explore changes in ER expression after treatment of MEK and MDF with E2 and E4. To investigate the effect of E2 and E4 on MEK differentiation and the expression of ECM proteins by MDF, primers for. Snail, keratin-1 and fibronectin, collagen I. MMP-2 and MMP-9 were used. Primers for INOS. IL-1B and Tnf-α or Ccl17 were used to assess M1/M2 polarisation status. Primers for GAPDH were used to normalise data. Relative gene expression was set to vehicle controls or M0 expression unless otherwise stated. Finally, the anti-inflammatory effects E2 and E4 were evaluated in freshly isolated murine peritoneal macrophages. Unlike the BMDM protocol, the already differentiated peritoneal macrophages were immediately pre-treated with E2 (10^−7M) or E4 (10^−7M), followed by M1 polarisation using IFN-γ and LPS for 6 hours. […] Note, the overall level of marker expression was higher in these cells. […] The observed anti-inflammatory effects of E4 were broadly similar to those observed for E2.

[3] = system: human dermal fibroblasts (HDF); experiment: Scratch wound assay, human dermal fibroblasts; assay type: cell-based; settings: for concentration of optimal stimulation of fibroblast scratch wound closure / scratch closure compared to vehicle control: HDF; for scratch closure: HDF fifth donor, 24 hours, DMEM with 2% CS-FBS, 0% FBS or 2% FBS; for scratch closure compared to vehicle control: 36 hours
Text: Primary human dermal fibroblasts (HDF) were isolated from abdominal skin or leg skin. Primary neonatal normal human epidermal keratinocytes (NHEK) were purchased (Lonza). Murine dermal fibroblasts (MDF), murine epidermal keratinocytes (MEK), murine peritoneal macrophages and murine bone marrow were isolated from C57/B16 (wt). NDb (Lepr+/-) or Db (Lepr-/-) mice. Fibroblasts were isolated and cultured in DMEM supplemented with 10% heat inactivated FBS. 1% penicillin/streptomycin and 1% amphotericin B. At least 4 days prior to performing assays cells were switched to DMEM supplemented with 5% charcoal-stripped FBS. Cells were seeded into 24 well plates and cultured to form a confluent monolayer, and then scratched with a 1 ml pipette tip. Wells were treated with E2, E4 and/or various estrogen receptor agonists and antagonists. […] A vehicle control containing the equivalent concentration of EtOH and/or DMSO was included, in addition to an untreated negative control. All treatments were diluted to working concentrations in media supplemented with 2% charcoal-stripped FBS. To visualise scratches at the defined endpoint, cells were stained with crystal violet and imaged on a Nikon E400 brightfield microscope. Scratch closure was determined from multiple independent measurements per well. Scratch assays were performed to quantify the effect of E2 and E4 at varying concentrations on HDF migration (FIG. 14). […] 10^-7M and 10^-6M (152%. 147% and 142% respectively). Thus, both E2 and E4 optimally stimulated fibroblast scratch wound closure at 10^-8M, with the higher magnitude of stimulation observed following E2 treatment. Next, an additional experiment was performed using HDF to a) further confirm the effects of E2 and E4 in fibroblasts from a fifth donor and b) explore the relative effect of including CS-FBS in the cell culture media. Three identical sets of scratch assays were performed (comparing vehicle to E2 or E4 treatment at 10^-7M) in DMEM containing either 2% CS-FBS. 0% FBS or 2% FBS (not CS).

[4] = system: murine dermal fibroblasts (MDFs); experiment: Scratch wound assay, murine dermal fibroblasts; assay type: cell-based, mouse; settings: MDF, 24 hours, versus vehicle control
Text: as §1
Fibroblasts were isolated and cultured in DMEM supplemented with 10% heat inactivated FBS. 1% penicillin/streptomycin and 1% amphotericin B. At least 4 days prior to performing assays cells were switched to DMEM supplemented with 5% charcoal-stripped FBS.
Cells were seeded into 24 well plates and cultured to form a confluent monolayer, and then scratched with a 1 ml pipette tip. Wells were treated with E2, E4 and/or various estrogen receptor agonists and antagonists. […] A vehicle control containing the equivalent concentration of EtOH and/or DMSO was included, in addition to an untreated negative control. All treatments were diluted to working concentrations in media supplemented with 2% charcoal-stripped FBS. To visualise scratches at the defined endpoint, cells were stained with crystal violet and imaged on a Nikon E400 brightfield microscope. Scratch closure was determined from multiple independent measurements per well.

| Compound | scratch wound closure [1] | expression of M1 markers (iNOS, IL1-β, Tnf-α) [2] | concentration of optimal stimulation of fibroblast scratch wound closure [3] | scratch closure ([3]; 10^−7M) | scratch closure compared to vehicle control ([3]; 10^−6M) | scratch closure compared to vehicle control ([3]; 10^−7M) [%] | scratch closure compared to vehicle control ([3]; 10^−9M) | scratch closure [4] | expression of IL1-β [2] | scratch closure compared to vehicle control ([3]; 10^−8M) [%] |
| --- | --- | --- | --- | --- | --- | --- | --- | --- | --- | --- |
| C[C@]12CC[C@@H]3c4ccc(O)cc4CC[C@H]3[C@@H]1CC[C@@H]2O [Formulation E2, 17β-estradiol, reference compound] | strong trend to faster wound closure | strong trend towards reduced expression | 10^−8 M | promoted scratch closure | no difference in closure was observed | 141 | no difference in closure was observed | significantly increased scratch closure compared to vehicle control treatment | – | – |
| C[C@]12CC[C@@H]3c4ccc(O)cc4CC[C@H]3[C@@H]1[C@@H](O)[C@@H](O)[C@@H]2O [Formulation E4, 1,3,5 (10)-estratrien-3,15alpha, 16alpha, 17beta-tetrol] | strong trend to faster wound closure | strong trend towards reduced expression | 10^−8 M | promoted scratch closure; also recorded: greatest promotion | 142% | 147 | – | significantly increased scratch closure compared to vehicle control treatment | achieved statistical significance | 152 |
